Test results as given in paper PMC5814047, “Peptidic inhibitors of insulin-degrading enzyme with potential for dermatological applications discovered via phage display” (PLoS ONE, 2018).
Values joined by “and” are separate entries in the source; they are usually repeats but may differ in a detail not shown here. Equal values may be shown once. Bridge positions count the residues as written; N and C are the ends. Peptide text beside a SMILES is read from it.

Test system: COL1A1 mRNA in primary murine skin fibroblasts
Assay: COL1A1 mRNA quantification by RT-PCR
Type: cell-based
Protocol: Insulin promotes wound healing and overall skin health by affecting a number of processes, including cell proliferation, cell migration, and the production and secretion of ECM components, particularly type I collagen. We therefore assessed the ability of P12-3A to influence these processes in cultured skin fibroblasts and keratinocytes. To that end, primary mouse skin fibroblasts were grown for 4 d in multiple concentrations of insulin in the presence or absence of P12-3A, and insulin concentration over time was monitored by ELISA. […] Finally, the effects of P12-3A on collagen production in were assessed at both the transcriptional and the posttranslational level in confluent monolayers of fibroblasts. After 4 d of treatment with P12-3A (100 μM), mRNA levels for the major form of collagen, alpha-1 type I collagen (COL1A1), were quantified by RT-PCR and found to be increased to ~2.6 times the levels of untreated cells (Fig 4C). To assess overall levels of collagen production and secretion, we quantified levels of hydroxyproline, a modified amino acid present almost exclusively in collagen proteins. […] Western blotting also confirmed that mature, cell-associated collagen levels were increased in the presence of P12-3A (Fig 4E).
Fig 4 Effects of P12-3A on cultured skin cells. A, Insulin concentrations as a function of time in logarithmically growing primary murine skin fibroblasts in the absence or presence of P12-3A (100 μM). […] Data are mean ± SEM of 4 independent replications. *P<0.05, **P<0.01. B, Proliferation of cells in the absence or presence of P12-3A (100 μM). Data are mean ± SEM of 6 independent replications. […] C,D,E, P12-3A (100 μM) potentiates insulin-induced collagen production in skin fibroblasts. Collagen production was assessed by COL1A1 mRNA levels (C), levels of hydroxyproline secreted into the medium (D), and cell-associated mature alpha-1 type I collagen levels detected by Western blotting (E). Data are mean ± SD of 4 independent replications. *P<0.05, **P<0.01. […] Migration of HaCaT cells 48 h after induction of a scratch wound in the presence of the indicated quantities of insulin and/or P12-3A (100 μM). Data are mean ± SEM of 6 independent replications. *P<0.05, **P<0.01.
RNA was extracted from freshly lysed cells, reverse transcribed and amplified using the Ambion® Fast SYBR® Green Cells-to-CT™ Kit according to manufacturer’s recommendations (Thermo Fisher Scientific, Waltham, MA, USA). The quantitative real-time PCR reaction was conducted using a 7500 real-time PCR system and analyzed using System SDS software v2.0.5 (Applied Biosystems). Murine COL1A1 mRNA was detected using the following primers (forward: 5’-[…] and reverse: 5’ […]). Fold change differences between samples were determined using the comparative Ct (ΔΔCt) method, normalized to internal standards detected with the SYBR® Green Cells-to-CT™ Control Kit according to manufacturer’s recommendations (Thermo Fisher Scientific, Waltham, MA, USA) calculated by 2^-ΔΔCt.

[1] = P12-3A 100 uM, individual replicates

In the case of `CC(C)C[C@H](NC(=O)[C@H](CO)NC(=O)[C@@H](N)CCC(N)=O)C(=O)N1CCC[C@H]1C(=O)N[C@@H](Cc1c[nH]c2ccccc12)C(=O)N[C@H]1CSSC[C@@H](C(=O)N[C@H](C(=O)N[C@H](C(N)=O)[C@@H](C)O)C(C)C)NC(=O)[C@H](Cc2c[nH]cn2)NC(=O)[C@@H]2CCCN2C(=O)[C@H](Cc2ccc(O)cc2)NC1=O` [P12-3A] (H-QSLPWCYPHCVT-NH2; disulfide 6-10 (inferred)), the “COL1A1 mRNA levels” value (100 μM P12-3A, 4 d, confluent monolayers) is reported as ~ 2.6 times the levels of untreated cells, the “2^(-DCt), COL1A1 mRNA, Mean” value (P12-3A 100 uM, N 4) is reported as 0.490 and the “DCt (COL1A1 mRNA vs internal standard ß-actin), Mean” value (P12-3A 100 uM, N 4) is reported as 1.082. The “2^(-DCt), COL1A1 mRNA” value [1] was 0.454 and 0.570 and 0.306 and 0.629, the “DCt (COL1A1 mRNA vs internal standard ß-actin)” value [1] was 1.14 and 0.81 and 1.71 and 0.67 and the “COL1A1 mRNA, normalized, Mean” value (P12-3A 100 uM, normalized to control mean (1.000), N 4) was 2.644. The “COL1A1 mRNA, normalized” value (P12-3A 100 uM, normalized to control mean (1.000), individual replicates) was 2.451 and 3.081 and 1.651 and 3.395, the “Ct, COL1A1 mRNA, Mean” value (P12-3A 100 uM, raw Ct, N 4) was 21.783 and the “Ct, COL1A1 mRNA” value (P12-3A 100 uM, raw Ct, individual replicates) was 22.07 and 21.23 and 21.93 and 21.9.
